One data set has as its system Ovarian cancer cells. The data set can be described thus: Human cancer cell assessment, ovarian. In kind it is cell-based. From the text:
As a quick secondary screen, the additive alone and in combination with the target drug was examined in these human cancer cell lines. The results of TK-211 are shown as a specific example.

For another data set, the system named is tumor growth. Particulars: has been shown (prior knowledge); cited from earlier work.
Another data set deals with mice. Conditions: cited from earlier work.

Regarding `N.N.[Cl][Pt][Cl]` [Cisplatin, cis-diamine-dichloroplatinum (II)], the values for the Cell survival in the data set with Ovarian cancer cells (1 μg/ml) and in the data set with Ovarian cancer cells (2 μg/ml) were 3% and 1%, respectively.

`NCCCNCCSP(=O)(O)O` [Amifostine]: the “effect on cisplatin efficacy” value with tumor growth is recorded as “slight impairment of cisplatin efficacy”. The “known reduction of cisplatin side effects” value with mice is “only to slightly reduce weight loss and hypothermia”.

The values above are taken from US20040258771A1 (priority 2001, published 2004).
